Reference: PubChem BioAssay (NCI)
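In this assay, cells in 96-well plates receive the compound at five concentrations for 48 hours. Endpoints are linearly interpolated between the surrounding concentrations. Abbreviation: GI50, concentration required for 50% inhibition of growth. The concentration for full growth arrest is given as TGI.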

How the values were obtained:
Assay in all cases: DTP human tumour cell line panel, 48 h
786-0 renal = tested on: 786-0 renal
A498 renal = tested on: A498 renal
A549 NSCLC = tested on: A549 NSCLC
ACHN renal = tested on: ACHN renal
BT-549 breast = tested on: BT-549 breast
CAKI-1 renal = tested on: CAKI-1 renal
CCRF-CEM leukemia = tested on: CCRF-CEM leukemia
COLO 205 colon = tested on: COLO 205 colon
DU-145 prostate = tested on: DU-145 prostate
HCC-2998 colon = tested on: HCC-2998 colon
HCT-116 colon = tested on: HCT-116 colon
HCT-15 colon = tested on: HCT-15 colon
HL-60(TB) leukemia = tested on: HL-60(TB) leukemia
HOP-62 NSCLC = tested on: HOP-62 NSCLC
HOP-92 NSCLC = tested on: HOP-92 NSCLC
HS 578T breast = tested on: HS 578T breast
HT29 colon = tested on: HT29 colon
IGROV1 ovarian = tested on: IGROV1 ovarian
K-562 leukemia = tested on: K-562 leukemia
KM12 colon = tested on: KM12 colon
LOX IMVI melanoma = tested on: LOX IMVI melanoma
M14 melanoma = tested on: M14 melanoma
MALME-3M melanoma = tested on: MALME-3M melanoma
MCF7 breast = tested on: MCF7 breast
MDA-MB-231 breast = tested on: MDA-MB-231 breast
MDA-MB-435 = tested on: MDA-MB-435
MOLT-4 leukemia = tested on: MOLT-4 leukemia
NCI-H226 lung = tested on: NCI-H226 lung
NCI-H23 lung = tested on: NCI-H23 lung
NCI-H460 lung = tested on: NCI-H460 lung
NCI-H522 lung = tested on: NCI-H522 lung
NCI/ADR-RES ovarian = tested on: NCI/ADR-RES ovarian
OVCAR-3 ovarian = tested on: OVCAR-3 ovarian
OVCAR-4 ovarian = tested on: OVCAR-4 ovarian
OVCAR-5 ovarian = tested on: OVCAR-5 ovarian
OVCAR-8 ovarian = tested on: OVCAR-8 ovarian
PC-3 prostate = tested on: PC-3 prostate
RPMI-8226 leukemia = tested on: RPMI-8226 leukemia
RXF 393 renal = tested on: RXF 393 renal
SF-268 CNS = tested on: SF-268 CNS
SF-295 CNS = tested on: SF-295 CNS
SF-539 CNS = tested on: SF-539 CNS
SK-MEL-2 melanoma = tested on: SK-MEL-2 melanoma
SK-MEL-28 melanoma = tested on: SK-MEL-28 melanoma
SK-MEL-5 melanoma = tested on: SK-MEL-5 melanoma
SK-OV-3 ovarian = tested on: SK-OV-3 ovarian
SN12C renal = tested on: SN12C renal
SNB-19 CNS = tested on: SNB-19 CNS
SNB-75 CNS = tested on: SNB-75 CNS
SR leukemia = tested on: SR leukemia
SW-620 colon = tested on: SW-620 colon
T-47D breast = tested on: T-47D breast
TK-10 renal = tested on: TK-10 renal
U251 CNS = tested on: U251 CNS
UACC-257 melanoma = tested on: UACC-257 melanoma
UACC-62 melanoma = tested on: UACC-62 melanoma
UO-31 renal = tested on: UO-31 renal

`O=C1NC(=NCCc2ccccn2)S/C1=C\c1ccc2ncccc2c1` showed a GI50 (786-0 renal) of 16.8 µM, a TGI (786-0 renal) greater than 25 µM and a GI50 (A498 renal) of 4.62 µM. For the same molecule, the TGI (A498 renal) was 21.1 µM, the GI50 (A549 NSCLC) was 8.29 µM and the TGI (A549 NSCLC) was greater than 25 µM. For the same molecule, the GI50 (ACHN renal) was 8.2 µM, the TGI (ACHN renal) was greater than 25 µM and the GI50 (BT-549 breast) was 10.5 µM. It also gave a TGI (BT-549 breast) greater than 25 µM, a GI50 (CAKI-1 renal) of 6.94 µM and a TGI (CAKI-1 renal) greater than 21.7 µM. The GI50 (CCRF-CEM leukemia) was 10.6 µM, the TGI (CCRF-CEM leukemia) was greater than 25 µM and the GI50 (COLO 205 colon) was 9.05 µM. It also gave a TGI (COLO 205 colon) greater than 25 µM, a GI50 (DU-145 prostate) of 11.7 µM and a TGI (DU-145 prostate) greater than 25 µM. It also gave a GI50 (HCC-2998 colon) greater than 21.4 µM, a TGI (HCC-2998 colon) greater than 25 µM and a GI50 (HCT-116 colon) of 8.25 µM. For the same molecule, the TGI (HCT-116 colon) was greater than 25 µM, the GI50 (HCT-15 colon) was 7.2 µM and the TGI (HCT-15 colon) was greater than 25 µM. It also gave a GI50 (HL-60(TB) leukemia) of 7.66 µM, a TGI (HL-60(TB) leukemia) greater than 25 µM and a GI50 (HOP-62 NSCLC) of 13.9 µM. It also gave a TGI (HOP-62 NSCLC) greater than 25 µM, a GI50 (HOP-92 NSCLC) of 9.33 µM and a TGI (HOP-92 NSCLC) greater than 25 µM. The GI50 (HS 578T breast) was 9.79 µM, the TGI (HS 578T breast) was greater than 20.2 µM and the GI50 (HT29 colon) was 13.8 µM. The TGI (HT29 colon) was greater than 25 µM, the GI50 (IGROV1 ovarian) was 9.29 µM and the TGI (IGROV1 ovarian) was greater than 25 µM. The GI50 (K-562 leukemia) was 9.99 µM, the TGI (K-562 leukemia) was greater than 25 µM and the GI50 (KM12 colon) was 18.2 µM. For the same molecule, the TGI (KM12 colon) was greater than 25 µM, the GI50 (LOX IMVI melanoma) was 13.3 µM and the TGI (LOX IMVI melanoma) was greater than 25 µM. It also gave a GI50 (M14 melanoma) of 12.7 µM, a TGI (M14 melanoma) greater than 25 µM and a GI50 (MALME-3M melanoma) of 18.1 µM. For the same molecule, the TGI (MALME-3M melanoma) was greater than 25 µM, the GI50 (MCF7 breast) was 10.5 µM and the TGI (MCF7 breast) was greater than 25 µM. For the same molecule, the GI50 (MDA-MB-231 breast) was 18.5 µM, the TGI (MDA-MB-231 breast) was greater than 25 µM and the GI50 (MDA-MB-435) was 9.59 µM. For the same molecule, the TGI (MDA-MB-435) was greater than 25 µM, the GI50 (MOLT-4 leukemia) was 8.04 µM and the TGI (MOLT-4 leukemia) was 22.6 µM. For the same molecule, the GI50 (NCI-H226 lung) was 11 µM, the TGI (NCI-H226 lung) was greater than 25 µM and the GI50 (NCI-H23 lung) was 11.1 µM. For the same molecule, the TGI (NCI-H23 lung) was greater than 25 µM, the GI50 (NCI-H460 lung) was 8.27 µM and the TGI (NCI-H460 lung) was greater than 25 µM. The GI50 (NCI-H522 lung) was 9.02 µM, the TGI (NCI-H522 lung) was greater than 22.6 µM and the GI50 (NCI/ADR-RES ovarian) was greater than 18.5 µM. It also gave a TGI (NCI/ADR-RES ovarian) greater than 25 µM, a GI50 (OVCAR-3 ovarian) of 9.88 µM and a TGI (OVCAR-3 ovarian) greater than 25 µM. The GI50 (OVCAR-4 ovarian) was 14.1 µM, the TGI (OVCAR-4 ovarian) was greater than 25 µM and the GI50 (OVCAR-5 ovarian) was greater than 22.3 µM. It also gave a TGI (OVCAR-5 ovarian) greater than 25 µM, a GI50 (OVCAR-8 ovarian) of 12.6 µM and a TGI (OVCAR-8 ovarian) greater than 25 µM. The GI50 (PC-3 prostate) was 15.1 µM, the TGI (PC-3 prostate) was greater than 25 µM and the GI50 (RPMI-8226 leukemia) was 13.1 µM. For the same molecule, the TGI (RPMI-8226 leukemia) was greater than 25 µM, the GI50 (RXF 393 renal) was 8.97 µM and the TGI (RXF 393 renal) was greater than 25 µM. For the same molecule, the GI50 (SF-268 CNS) was 11.4 µM, the TGI (SF-268 CNS) was greater than 25 µM and the GI50 (SF-295 CNS) was greater than 16.1 µM. The TGI (SF-295 CNS) was greater than 25 µM, the GI50 (SF-539 CNS) was 6.68 µM and the TGI (SF-539 CNS) was greater than 25 µM. For the same molecule, the GI50 (SK-MEL-2 melanoma) was 9.02 µM, the TGI (SK-MEL-2 melanoma) was greater than 22.2 µM and the GI50 (SK-MEL-28 melanoma) was 15.4 µM. It also gave a TGI (SK-MEL-28 melanoma) greater than 25 µM, a GI50 (SK-MEL-5 melanoma) of 10.8 µM and a TGI (SK-MEL-5 melanoma) greater than 25 µM. For the same molecule, the GI50 (SK-OV-3 ovarian) was 9.1 µM, the TGI (SK-OV-3 ovarian) was greater than 25 µM and the GI50 (SN12C renal) was 9.33 µM. The TGI (SN12C renal) was greater than 25 µM, the GI50 (SNB-19 CNS) was 11.1 µM and the TGI (SNB-19 CNS) was greater than 25 µM. It also gave a GI50 (SNB-75 CNS) of 1.69 µM, a TGI (SNB-75 CNS) greater than 20.7 µM and a GI50 (SR leukemia) of 4.21 µM. It also gave a TGI (SR leukemia) of 14 µM, a GI50 (SW-620 colon) of 8.33 µM and a TGI (SW-620 colon) greater than 25 µM. The GI50 (T-47D breast) was 11 µM, the TGI (T-47D breast) was greater than 25 µM and the GI50 (TK-10 renal) was 7.33 µM. For the same molecule, the TGI (TK-10 renal) was 24.5 µM, the GI50 (U251 CNS) was 9.23 µM and the TGI (U251 CNS) was greater than 25 µM. The GI50 (UACC-257 melanoma) was 15.4 µM, the TGI (UACC-257 melanoma) was greater than 25 µM and the GI50 (UACC-62 melanoma) was 9.73 µM. The TGI (UACC-62 melanoma) was greater than 25 µM, the GI50 (UO-31 renal) was 7.91 µM and the TGI (UO-31 renal) was 24.3 µM.
